Entries after “also recorded” stand apart in the source; their conditions may differ.
Legend:
[1] = tested on: microtubules in neurites of hippocampal neurons of Tau368 mice; assay: Electron microscopy of microtubule bundles; format: in vivo, mouse; conditions: dox 2 months
Experimental: (§1) For 2-month male C57BL/6 mice, 10 mM FITC-labeled or unlabeled-DEPTAC were directly injected through the tail vein or lateral ventricle for the evaluation of BBB-penetrability. For 9-month 3×Tg AD mice or Tau368 (20–30 g body weight), unlabeled-DEPTAC (5 mM, 1 μL for each time) was delivered for once into the lateral ventricle through direct stereotaxic injection, or repeatedly administrated through guiding cannulas (RWD, Shenzhen, China) implanted into the lateral ventricle once every 3 days for a consecutive month to test its dephosphorylation efficiency. Mice were restricted in a custom designed device and stayed awake during drug administration, and sacrificed at 24 h post the single or last DEPTAC administration.
Mice were killed by overdose 1% pentobarbital sodium. Hippocampal tissues were isolated on ice, fixed in 2.5% glutaraldehyde at 4 °C for 24 h, washed in 0.1 M phosphate buffer, and post-fixed in 1% osmium acid for 2 h. After washed with phosphate buffer, tissues were dehydrated in increasing gradient of ethanol (30–100%), and incubated in turn with acetone/epoxy (2:1), acetone/epoxy (1:1) and epoxy for 12 h each at 37 °C. Tissues were subsequently embedded in epoxy at 37 °C for 48 h. Sections of 100 nm were sliced using a ultramicrotome (EM UC7, Leica), and stained in a buffer containing 2% uranium acetate and lead citrate at room temperature for 15 min. Images were taken by a transmission electron microscope (Tecnai G^2 20 TWIN, FEI). Bundles density and length were analyzed using ImageJ.

Tau368 mice = assay: Novel-object recognition test; format: in vivo, mouse
Experimental: Novel-object recognition tests were performed one day after the object-place recognition. A similar protocol was used except that object B was replaced by a novel object (object C) in the test phase, and mice preference for the novel object was measured.

MAP2 = MAP2 level in primary neurons; format: cell-based
Experimental: (§2) Cultured cells or hippocampus tissues were collected on ice, and homogenized with RIPA lysis buffer containing 50 mM Tris-HCl, 100 mM NaCl, 1% Triton X-100, 5 mM EDTA, and 1:100 PMSF, and then centrifuged at 12,000 × g for 20 min. The supernatant was collected for the analysis of soluble proteins. In some experiments, the pellets were further incubated with 8% SDS buffer at 37 °C and then ultrasound for 60 times to reach a complete resuspension for the analysis of insoluble tau. Protein concentration was measured through BCA assays (Thermo Fisher). Equal amount of protein from each sample were separated in SDS-PAGE gels, and then transferred onto nitrocellulose or 0.22 μm polyvinylidene fluoride membranes (Merck Millipore). […] Blots were visualized using ECL luminol reagent (P0018FS, Beyotime), and quantified using ImageJ software.

pS396-tau = pS396-tau immunostaining in the DG of Tau368 mice; format: in vivo, mouse; conditions: DEPTAC for a consecutive month after stopping dox; **p < 0.01, n = 4–5 mice
Experimental: as §1
Cultured neurons were fixed with 4% paraformaldehyde for 15 min. For animal experiments, mice were anesthetized with 1% pentobarbital sodium and intracardially perfused with normal saline followed by 4% paraformaldehyde (in 0.1 M phosphate buffer, pH 7.4). Mice brains were removed, post-fixed in 4% PFA for 12 h, and then cryoprotected in 20% and 30% sucrose solutions in turn. Fifty micrometer brain sections were sliced using a cryostat microtome (Leica). […]

tau = assay: Hippocampal phospho-tau and total tau in 3×Tg AD mice; format: in vivo, mouse; conditions: 9-month 3×Tg AD mice, 5 mM, 1 μL
Experimental: Mice weighting 20–30 g were anesthetized with 1% pentobarbital sodium (35 mg/kg), and fixed in a stereotaxic instrument (RWD). The scalp was sterilized with iodophors and 75% ethanol, and incised along the skull midline. Holes were drilled. Adeno-associated virus or DEPTAC was injected into the dorsal DG (posterior 1.9 mm, lateral ±1.1 mm from the bregma, ventral −2.0 from the skull) or lateral ventricle (posterior 0.22 mm, lateral ±1.0 mm from the bregma, ventral −2.5 from the skull), respectively, using an automatic microinjection system (World Precision Instruments, USA) at a rate of 0.05 μL/min. The needle syringe was left in place for 5 min before withdrawal. The skin was sutured and sterilized with iodophors. Mice were placed on thermos tank for analepsia.
as §1, §2

[2] = then 1-month DEPTAC, *p < 0.05, n = 5 mice, 12–23 view fields
[3] = intracerebroventricular, once every 3 days for a consecutive month, *p < 0.05, n = 4

(1) YQQYQDATADEQG, originates from the porcine β-tubulin 422–434 for recognizing and binding tau proteins.[5],[6] (2) GSGS, a linker for increasing the flexibility of the peptide.[15] (3) KKVAVVRTPPKSP, for recruiting PP2A-Bα,[16] and (4) RRRRRRRR [DEPTAC, DEPhosphorylation TArgeting Chimera; 38 amino acid residues, C185H314N72O56]
density of microtubule bundles [1, 2]: significantly reversed | length of microtubule bundles [1, 2]: significantly reversed | microtubule disassembly in morphology ([1]; then DEPTAC for a consecutive month): efficiently reversed | novel-object recognition in control mice (Tau368 mice; Tau368 mice treated with NW): only limitedly affected | novel-object recognition impairment (Tau368 mice; dox-treated Tau368 mice, 1-month DEPTAC after stopping dox, *p < 0.05, n = 10–15 mice): remarkably ameliorated; also recorded: rescued | level of MAP2 (MAP2; Supplementary Fig. S3, specificity to tau): did not change | selectivity to tau proteins (MAP2; discussion): considerable selectivity to tau proteins | level of pS396-tau immunostaining in the DG (pS396-tau): ameliorated | hippocampal phospho-tau, repeated delivery (tau; [3]): significantly reduced | hippocampal total tau, repeated delivery (tau; [3]): significantly reduced | hippocampal phospho-tau, delivered for once (tau; once, n = 4): tended to decrease; also recorded: relatively limited | hippocampal total tau, delivered for once (tau; once, n = 4): tended to decrease; also recorded: relatively limited
